Measurements taken from US10906946B2, “Thrombin inhibitors” (priority 2015, dated 2021).
Where two headings read alike, the source gives them in different places. Peptide text beside a SMILES is read from it.

Key:
human α-thrombin = biological target: T1, human α-thrombin (Homo sapiens, UniProt P00734); assay: Thrombin amidolytic activity assay with chromogenic substrate S2238; format: biochemical
T1 construct: residues in the termini of the light chain; purchased Chemo-Sero-Therapeutic Research Institute (Kaketsuken, Japan), as a gift, not bought
How it was run: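 Run in 50 mM Tris pH 7.4, 100 mM NaCl, 1 mg/ml BSA; p-nitroaniline release from S2238 monitored at 405 nm for 10 min. IC50 and Hill coefficients from dose-response fits; inhibition constants from varied S2238 concentrations using Morrison tight-binding equation.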

thrombin = biological target: T2, thrombin (Homo sapiens, UniProt P00734); assay: Inhibition of thrombin fibrinogenolytic activity (fibrinogen clotting time); format: biochemical
T2 construct: residues in the termini of the light chain; and in the autolysis loop and C-terminus of the heavy chain; purchased Chemo-Sero-Therapeutic Research Institute (Kaketsuken, Japan), as a gift, not bought
Description: Thrombin amidolytic activity assays for all peptides were performed in 96-wells microtiter plates in 50 mM Tris buffer (pH 7.4) containing 100 mM NaCl and 1 mg/ml bovine serum albumin. Typically, 100 μl of peptide and 100 μl of thrombin were pre-incubated for different durations before 100 μl of S2238 was added to the reaction wells. The rates of formation of p-nitroaniline were followed by measuring the absorbance at 405 nm for 10 min with a Tecan InfinitePro M200 microplate reader from Tecan (Männedorf, Switzerland). Dose-response curves were fitted using the GraphPad Prizm software (San Diego, Calif., USA) to calculate IC50 values and Hill coefficients. To measure the inhibitory constants, different concentrations of S2238 were used and the residual velocities were determined using the Morrison's tight binding equation. Inhibition of thrombin fibrinogenolytic activity of peptides were tested by measuring absorbance at 650 nm using a Sunrise microplate reader from Tecan (Männedorf, Switzerland) as described previously [Koh C Y, et al., J Biol Chem 282: 29101-13 (2007)]. The selectivity of avathrin was examined against 13 serine proteases (FIG. 5). Effects of avathrin on the amidolytic activities of these serine proteases were determined using respective chromogenic substrates. Cleavage of avathrin by thrombin. Avathrin (150 μM) was incubated with thrombin (5 μM), in 50 mM Tris buffer (pH 7.4) containing 150 mM NaCl and 1 mg/ml BSA. After different incubation times, reactions were quenched with 1% TFA (pH 1.8) and loaded onto a Jupiter Proteo column (4 μm, 90 Å, 100×1.0 mm) attached to a Dionex nano-HPLC system from Thermo Fisher Scientific (Waltham, Mass., USA) and eluted using an acetonitrile gradient with 0.05% TFA and 99.95% MilliQ water as eluent A and 0.05% TFA, 19.95% MilliQ water and 80% ACN as eluent B. Masses of all peaks were measured to identify cleavage products, which were subsequently quantified by integrating the peaks and calculating the area under the curves. To measure the effect of different pre-incubation times on the thrombin inhibitory activity, amidolytic assays were performed for various incubation times (up to 36 h).

blood = assay: Anti-coagulation effect of peptides in blood tubes (visual clot formation); design: species or system human (healthy volunteers); details: room temperature
Description: Individual peptides are dissolved in phosphate buffered saline to prepare 10× peptide solutions (ie. concentrations of peptides are 10 times higher than the final concentrations at which they are to be tested). 0.3 ml of the 10× peptide solutions are placed in blood tubes without any additives. Blood was drawn from healthy volunteers using syringes and immediately transferred to a 50 ml conical centrifuge tube (Falcon tube) before pipetting 2.7 ml of the blood into blood tubes with peptide solutions. Final concentrations of peptides are as stated in Table 5 and 6.
Blood tubes with various peptides at different concentrations were left standing at room temperature until tested at designated times. At different time points, tubes were inverted several times and visually inspected for insoluble materials as indications of clot formation.

[1] = inhibitory constant Ki for thrombin, thrombin 0.81 nM, various S2238 concentrations
[2] = final concentration 75 micromolar
[3] = final concentration 150 micromolar
[4] = final concentration 300 micromolar

Structure (SMILES) | times higher affinity for thrombin than Bivalirudin (human α-thrombin) | Hill slope of thrombin amidolytic inhibition (human α-thrombin; 0 min pre-incubation where stated) | Hill slope of thrombin amidolytic inhibition, 10 min pre-incubation (human α-thrombin; 10 min pre-incubation) | IC50 (human α-thrombin; IC50(nM), Table 2) [nM] | Hill Slope (human α-thrombin; Table 2) | thrombin amidolytic activity inhibited after prolonged incubation (human α-thrombin; at 24 h, same avathrin:thrombin ratio as cleavage experiments) [%] | Ki (human α-thrombin; [1]) [nM] | inhibition at 0.01 µM (human α-thrombin; read-out: inhibition of thrombin activity) [%] | inhibition at 0.001 µM (human α-thrombin; read-out: inhibition of thrombin amidolytic activity at equimolar concentrations) [%] | effect on fibrinogen clotting time / thrombin fibrinogenolytic activity (thrombin) | effect on fibrinogen clotting time / thrombin fibrinogenolytic activity (thrombin; listed as avathrin) | Time to observe clot formation (blood; [2]) [h] | Time to observe clot formation (blood; [3]) [h] | Time to observe clot formation (blood; [4]) [h] | fold more potent than variegin (Ki) (human α-thrombin) | fold stronger affinity compared to avathrin and variegin (human α-thrombin) [fold] | Ki (human α-thrombin; Affinity (nM), Table 4, Ki values) [nM] | IC50 (human α-thrombin; IC50 (nM), Table 5) [nM] | IC50 (human α-thrombin; IC50 of inhibition of thrombin amidolytic activity, thrombin 0.81 nM, S2238 100 μM, without pre-incubation (0 min) where stated) [nM] | Ki (human α-thrombin; Ki (pM), Table 5) [nM]
CC[C@H](C)[C@H](NC(=O)[C@H](CCCCN)NC(=O)[C@@H]1CCCN1C(=O)[C@@H](NC(=O)[C@H](C)NC(=O)[C@@H](NC(=O)[C@H](CCC(N)=O)NC(=O)[C@H](Cc1c[nH]cn1)NC(=O)CNC(=O)CNC(=O)[C@@H](N)CO)[C@@H](C)O)C(C)C)C(=O)N[C@@H](CO)C(=O)N[C@@H](CCCCN)C(=O)N[C@@H](CCC(N)=O)C(=O)NCC(=O)N[C@@H](CC(C)C)C(=O)NCC(=O)NCC(=O)N[C@@H](CC(=O)O)C(=O)N[C@@H](Cc1ccccc1)C(=O)N[C@@H](CCC(=O)O)C(=O)N[C@@H](CCC(=O)O)C(=O)N[C@H](C(=O)N1CCC[C@H]1C(=O)N[C@@H](CO)C(=O)N[C@@H](CC(=O)O)C(=O)N[C@@H](CCC(=O)O)C(=O)N[C@H](C(=O)N[C@H](C(=O)N[C@@H](CCC(=O)O)C(=O)O)[C@@H](C)CC)[C@@H](C)CC)[C@@H](C)CC [Avathrin] (H-SGGHQTAVPKISKQGLGGDFEEIPSDEIIE-OH; N-terminus and C-terminus assumed) | approximately 5 times | 0.92±0.01 | 0.94±0.02 | 6.95 ± 0.42 | 0.92 ± 0.02 | > 45 | 0.5453 ± 0.0031 | 65 | 14.3 ± 1.39 | prolonged fibrinogen clotting time in a dose-dependent manner | prolonged fibrinogen clotting times in a dose dependent manner | 42 to 52 | 52 to 66 | 52 to 66 |  |  |  |  |  | 
CC[C@H](C)[C@H](NC(=O)[C@H](C)NC(=O)[C@H](CC(=O)O)NC(=O)[C@H](CC(=O)O)NC(=O)[C@@H]1CCCN1C(=O)[C@@H](NC(=O)[C@H](CCC(=O)O)NC(=O)[C@H](CCC(=O)O)NC(=O)[C@H](Cc1ccccc1)NC(=O)[C@H](CC(=O)O)NC(=O)CNC(=O)[C@@H]1CCCN1C(=O)[C@@H]1CCCN1C(=O)[C@H](C)NC(=O)[C@@H](NC(=O)[C@H](CO)NC(=O)[C@H](Cc1ccc(O)cc1)NC(=O)[C@H](CCSC)NC(=O)[C@H](CCCCN)NC(=O)[C@@H]1CCCN1C(=O)[C@@H](NC(=O)[C@H](C)NC(=O)[C@H](CCCNC(=N)N)NC(=O)[C@@H](NC(=O)[C@H](C)NC(=O)[C@H](CCC(=O)O)NC(=O)[C@H](CC(=O)O)NC(=O)[C@@H](N)CO)C(C)C)[C@@H](C)CC)[C@@H](C)O)[C@@H](C)CC)C(=O)N[C@@H](CCC(=O)O)C(=O)N[C@@H](CCC(=O)O)C(=O)O [Ultravariegin] (H-SDEAVRAIPKMYSTAPPGDFEEIPDDAIEE-OH; N-terminus and C-terminus assumed) | ~650 times |  |  |  |  |  | 0.0015 |  |  | prolonged fibrinogen clotting times in a dose dependent manner |  | 91 to 101 | 101 to 139 | 101 to 139 | more than 70 fold | > 200 | 0.001 | 0.4 ± 0.09 | 0.26 ± 0.008 | 0.0044 ± 0.00035
